The nature of this series: Release of oxybutynin using ultrasound from oxybutynin-containing polymer matrix microparticles (reverse phase HPLC). Type of series: physicochemical. The method, then: Four vials containing product manufactured in accordance with Example 5 were each reconstituted with 10 mL of 20 mM KPO4 at pH 3.5 (wash solution). The oxybutynin containing microparticles from two of the vials were retrieved by centrifugation at 1500 rpm for 15 minutes. The microparticles were resuspended in 10 mL of wash solution and vortexed. The washing procedure was repeated two more times. The final washed matrix microparticles were resuspended in a total volume of 10 mL of wash solution. The remaining two vials were not washed. One vial from each set was designated the control sample and the other vial was the experimental sample.
The controls remained undisturbed for 80 minutes to allow the matrix microparticles to float. The subnatant was removed and centrifuged at 14,000 rpm for 2 minutes. The experimental samples were each sonicated for 1 minute on level 5 using a Virtis Virsonic hand-held sonicator. […] The suspensions were centrifuged at 14,000 rpm for 2 minutes. All four of the resulting supernatants were retrieved and analyzed by reverse phase HPLC. […] The amount of oxybutynin in each sample was calculated from the area using the standard curve.

SMILES strings stand for the structures.

As for `CCN(CC)CC#CCOC(=O)C(O)(c1ccccc1)C1CCCCC1` (centres unmarked) [oxybutynin], under “microparticles of Example 5”, the “burst release of oxybutynin, of the recovered amount” value came out at 34% and the “oxybutynin released due to sonication, of the recovered amount” value was determined as 66%. For the same compound, for the setting “microparticles of Example 5, unwashed, not sonicated, undisturbed 80 minutes”, the “amount of oxybutynin in supernatant, unwashed control sample” value was determined as 0.65 mg oxybutynin/vial. Further, the “amount of oxybutynin in supernatant, unwashed experimental sample” value (microparticles of Example 5, unwashed, sonicated 1 minute level 5) amounted to 1.93 mg/vial. Further, the “leakage of drug after reconstitution” value (microparticles of Example 5, washed control, burst release removed) is on record as “little to no leakage”. For the same compound, the “amount of oxybutynin in supernatant, washed control sample” value (microparticles of Example 5, washed, not sonicated, undisturbed 80 minutes, 20 mM KPO4 pH 3.5) is 0.03 mg oxybutynin/vial. Besides, the “amount of oxybutynin in supernatant, washed experimental sample” value (microparticles of Example 5, washed, sonicated 1 minute level 5, 20 mM KPO4 pH 3.5) is reported as 1.05 mg/vial. Moreover, where the note is “microparticles of Example 5, theoretical loading 2.4 mg/vial”, the “total oxybutynin recovered after sonication compared to theoretical loading” value amounted to 80%.

Source of the values: US20040185108A1, “Method of preparing gas-filled polymer matrix microparticles useful for delivering drug” (priority 2003, published 2004).
